Laboratory results taken from publication PMC3145970, “Specific CLK Inhibitors from a Novel Chemotype for Regulation of Alternative Splicing” (Chemistry & Biology, 2011).
Read-outs that look alike come from different tables or passages of the source.

Tests used:
Test in all cases: Thermal stability shift assay
Assay type in all cases: binding
DMPK1 = target: T1, DMPK1 (Homo sapiens, UniProt Q09013); conditions: read-out: Tm shift DMPK1
T1 construct: purchased in-house (SGC Oxford thermal shift panel)
T1 sequence (Q09013 1-629): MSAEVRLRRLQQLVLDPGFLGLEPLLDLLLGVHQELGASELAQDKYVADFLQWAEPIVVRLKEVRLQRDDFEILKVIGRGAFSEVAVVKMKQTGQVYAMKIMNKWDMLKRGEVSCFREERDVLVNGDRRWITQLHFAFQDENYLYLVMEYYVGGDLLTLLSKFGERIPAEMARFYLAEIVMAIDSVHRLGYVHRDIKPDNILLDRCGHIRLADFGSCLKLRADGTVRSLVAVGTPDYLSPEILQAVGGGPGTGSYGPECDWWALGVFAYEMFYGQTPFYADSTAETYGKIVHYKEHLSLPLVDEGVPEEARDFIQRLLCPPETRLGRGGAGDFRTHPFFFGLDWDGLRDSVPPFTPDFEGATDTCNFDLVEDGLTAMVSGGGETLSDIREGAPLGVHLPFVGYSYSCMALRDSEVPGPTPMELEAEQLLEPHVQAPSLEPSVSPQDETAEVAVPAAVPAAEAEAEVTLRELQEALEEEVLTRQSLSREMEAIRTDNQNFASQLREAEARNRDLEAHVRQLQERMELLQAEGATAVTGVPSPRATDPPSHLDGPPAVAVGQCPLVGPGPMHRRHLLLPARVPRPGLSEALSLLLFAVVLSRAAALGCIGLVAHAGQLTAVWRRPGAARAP
Summary of the method: (§1)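 2 μM protein + 10 μM inhibitor; 10 mM HEPES pH 7.5, 500 mM NaCl, SyproOrange 1:1000; melt in qPCR cycler, dye fluorescence monitored.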

PKG1 = target: T2, PKG1 (Homo sapiens, UniProt Q13976); conditions: read-out: Tm shift PKG1
T2 sequence (Q13976 1-671): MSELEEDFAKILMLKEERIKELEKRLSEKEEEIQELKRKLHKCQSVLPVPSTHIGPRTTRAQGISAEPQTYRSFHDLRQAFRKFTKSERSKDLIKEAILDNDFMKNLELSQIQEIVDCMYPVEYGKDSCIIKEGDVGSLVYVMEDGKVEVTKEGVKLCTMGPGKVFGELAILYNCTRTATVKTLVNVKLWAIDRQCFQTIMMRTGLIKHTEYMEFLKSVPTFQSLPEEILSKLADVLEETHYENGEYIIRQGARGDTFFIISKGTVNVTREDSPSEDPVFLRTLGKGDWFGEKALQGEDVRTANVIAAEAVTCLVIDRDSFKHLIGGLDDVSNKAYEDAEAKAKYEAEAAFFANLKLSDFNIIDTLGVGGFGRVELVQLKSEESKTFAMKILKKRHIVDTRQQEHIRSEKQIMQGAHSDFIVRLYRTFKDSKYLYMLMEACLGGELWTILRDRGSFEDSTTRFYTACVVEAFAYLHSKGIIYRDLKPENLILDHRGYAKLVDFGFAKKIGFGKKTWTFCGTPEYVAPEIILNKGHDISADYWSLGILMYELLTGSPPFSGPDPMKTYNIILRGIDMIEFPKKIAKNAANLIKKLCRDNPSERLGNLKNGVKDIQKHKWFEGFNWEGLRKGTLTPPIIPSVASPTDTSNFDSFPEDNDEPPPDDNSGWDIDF
Summary of the method: as §1

PRKX = target: T3, PRKX (Homo sapiens, UniProt P51817); conditions: read-out: Tm shift PRKX
T3 sequence (P51817 1-358): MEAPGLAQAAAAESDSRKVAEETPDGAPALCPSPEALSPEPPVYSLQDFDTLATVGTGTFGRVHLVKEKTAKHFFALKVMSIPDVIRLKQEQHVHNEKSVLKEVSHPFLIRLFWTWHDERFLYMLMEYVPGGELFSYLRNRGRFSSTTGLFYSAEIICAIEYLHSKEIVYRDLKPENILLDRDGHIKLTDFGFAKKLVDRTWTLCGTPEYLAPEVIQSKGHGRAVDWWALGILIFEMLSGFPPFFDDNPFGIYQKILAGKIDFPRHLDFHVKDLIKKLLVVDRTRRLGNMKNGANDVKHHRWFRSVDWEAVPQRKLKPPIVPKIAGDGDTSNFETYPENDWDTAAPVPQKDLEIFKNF
Summary of the method: as §1

Row | SMILES | ΔTm at 10 µM (DMPK1; inhibitor 10 μM) [°C] | ΔTm at 10 µM (PKG1; inhibitor 10 μM) [°C] | ΔTm at 10 µM (PRKX; inhibitor 10 μM) [°C] | ΔTm at 10 µM (DMPK1) [°C] | ΔTm at 10 µM (PKG1) [°C] | ΔTm at 10 µM (PRKX) [°C]
1 | CCOC(=O)c1c(C(C#N)=CN(C)C)c2ccc(Cl)c(Cl)c2n1C (mixture of isomers) [compound 2, (E/Z)-Ethyl 6,7-Dichloro-3-[1-Cyano-2-(Dimethylamino)Vinyl]-1-Methyl-1H-Indole-2-Carboxylate] | -0.3 | 0.3 | 0.3 | – | – | –
2 | NC1=NC(=O)/C(=C2\CCNC(=O)c3[nH]c(Br)cc32)N1 [Hymenialdisine, hymenialdisine, reference compound] | 0.2 | 1.4 | 0.3 | – | – | –
3 | CCOC(=O)c1c(C(C#N)=CN)c2ccc(Cl)c(Cl)c2n1C (mixture of isomers) [KH-CB20, (E/Z)-Ethyl 3-(2-Amino-1-Cyanovinyl)-6,7-Dichloro-1-Methyl-1H-Indole-2-Carboxylate] | – | – | – | -0.4 | 0.5 | 0.4
4 | CCOC(=O)c1c(/C(C#N)=C\N)c2ccc(Cl)c(Cl)c2n1C [KH-CB19, (E)-Ethyl 3-(2-Amino-1-Cyanovinyl)-6,7-Dichloro-1-Methyl-1H-Indole-2-Carboxylate] | – | – | – | -0.4 | 0.8 | 0.5
5 | Cn1c2c(Cl)c(Cl)ccc2c2c(C#N)c[nH]c(=O)c21 [compound 3, 7,8-Dichloro-9-Methyl-1-Oxo-2,9-Dihydro-1H-Pyrido[3,4-b]Indole-4-Carbonitrile] | 0.9 | 0.6 | 0.5 | – | – | –
